Results from patent publication US8163940B2, “Method for preparation of amorphous, anhydrous crystalline or hydrated crystalline docetaxel” (Samyang Genex Corporation, priority 2006, dated 2012).
Where “and” joins values, the source holds several entries; their conditions need not be identical. Equal values may be shown once.

Test: Stability of docetaxel dissolved and left standing in alcohols at 50° C. (HPLC purity and degradation degree)
Type: physicochemical
Conditions: dissolution and standing at 50° C.
Protocol: The purity and recovery rate of docetaxel in the present specification were calculated by quantity analysis using HPLC under the conditions of Table 2.
To evaluate the stability of docetaxel in the case that hydrated crystalline docetaxel is prepared by dissolution in alcohols at a high temperature, methanol and ethanol were each used as an organic solvent and dissolution temperature and standing temperature were 50° C., and change in purity of docetaxel and degradation degree were measured after letting it stand for 0, 1, 5, 10, and 24 hours.

- 7-epi-docetaxel Amounts Produced (EtOH, 0 hr): 0 area %
- Change in Purity of Docetaxel (EtOH, 0 hr): 99.7480%
- 7-epi-docetaxel Amounts Produced (EtOH, 1 hr): 0.4494 area %
- Change in Purity of Docetaxel (EtOH, 1 hr): 99.2959%
- 7-epi-docetaxel Amounts Produced (EtOH, 5 hr): 1.8948 area %
- Change in Purity of Docetaxel (EtOH, 5 hr): 97.8546%
- 7-epi-docetaxel Amounts Produced (EtOH, 10 hr): 2.9451 area %
- Change in Purity of Docetaxel (EtOH, 10 hr): 96.8045%
- 7-epi-docetaxel Amounts Produced (EtOH, 24 hr): 4.5544 area %
- Change in Purity of Docetaxel (EtOH, 24 hr): 95.1952%
- 7-epi-docetaxel Amounts Produced (MeOH, 0 hr): 0 area %
- Change in Purity of Docetaxel (MeOH, 0 hr): 99.7469%
- 7-epi-docetaxel Amounts Produced (MeOH, 1 hr): 4.0163 area %
- Change in Purity of Docetaxel (MeOH, 1 hr): 95.7% and 95.7399%
- 7-epi-docetaxel Amounts Produced (MeOH, 5 hr): 17.2282 area %
- Change in Purity of Docetaxel (MeOH, 5 hr): 81.8743%
- 7-epi-docetaxel Amounts Produced (MeOH, 10 hr): 28.4728 area %
- Change in Purity of Docetaxel (MeOH, 10 hr): 69.3707%
- 7-epi-docetaxel Amounts Produced (MeOH, 24 hr): 41.5352 area %
- Change in Purity of Docetaxel (MeOH, 24 hr): 50.7338%
SMILES: CC(=O)O[C@@]12CO[C@@H]1C[C@H](O)[C@@]1(C)C(=O)[C@H](O)C3=C(C)[C@@H](OC(=O)[C@H](O)[C@@H](NC(=O)OC(C)(C)C)c4ccccc4)C[C@@](O)([C@@H](OC(=O)c4ccccc4)[C@H]21)C3(C)C [docetaxel]
